# Data published in ChEMBL document CHEMBL4808232, “Discovery of IDO1 inhibitors containing a decahydroquinoline, decahydro-1,6-naphthyridine, or octahydro-1H-pyrrolo[3,2-c]pyridine scaffold” (Bioorg Med Chem Lett, 2021).
# Key:
# [1] = target: T1, Indoleamine 2,3-dioxygenase 1 (Homo sapiens, UniProt P14902); experiment: Inhibition of IDO1 in human HeLa cells assessed as production of N-formylkynurenine using tryptophan as substrate in presence of inactivated fetal bovine serum; format: cell-based
# T1 sequence (P14902 whole entry): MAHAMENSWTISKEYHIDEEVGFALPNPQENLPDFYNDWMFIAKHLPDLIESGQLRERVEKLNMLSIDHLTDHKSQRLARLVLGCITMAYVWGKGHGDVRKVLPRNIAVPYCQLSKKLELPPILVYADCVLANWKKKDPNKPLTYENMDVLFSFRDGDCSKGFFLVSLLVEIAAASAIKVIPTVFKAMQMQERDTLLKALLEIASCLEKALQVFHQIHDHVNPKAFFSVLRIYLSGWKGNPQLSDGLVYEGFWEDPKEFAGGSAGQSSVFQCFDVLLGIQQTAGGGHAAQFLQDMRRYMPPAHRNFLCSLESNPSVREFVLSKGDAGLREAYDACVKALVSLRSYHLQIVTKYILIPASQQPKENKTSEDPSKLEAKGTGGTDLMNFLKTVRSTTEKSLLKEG
# [2] = target: T1, Indoleamine 2,3-dioxygenase 1; experiment: Inhibition of IDO1 in human whole blood; format: tissue-based
# [3] = Clearance in male Wistar Han rats at 0.05 mg/kg, iv; format: ADME, organism-based; conditions: rat, in vivo
# [4] = target: T1, Indoleamine 2,3-dioxygenase 1; experiment: Inhibition of IDO1 in human whole blood assessed as unbound concentration; format: tissue-based
# [5] = Unbound clearance in male Wistar Han rat at 0.05 mg/kg, iv; format: ADME, organism-based; conditions: in vivo
# [6] = MRT in male Wistar Han rat at 0.05 mg/kg, iv; format: ADME, organism-based; conditions: male, Wistar Han, in vivo, read-out: MRT
# [7] = Clearance in Beagle dog at 0.05 mg/kg, iv; format: ADME, organism-based, Canis lupus familiaris; conditions: in vivo
# [8] = Unbound clearance in Beagle dog at 0.05 mg/kg, iv; format: ADME, organism-based, Canis lupus familiaris; conditions: in vivo
# [9] = MRT in Beagle dog at 0.05 mg/kg, iv; format: ADME, organism-based, Canis lupus familiaris; conditions: in vivo
smiles,measurement,setting,value
CC(C(=O)Nc1ccc(Cl)cc1)N1CCC2C(CCCN2C(=O)OC2CC2)C1 (stereo in doubt; 27),IC50,[1],1.9 nM
same,IC50,[2],43 nM
same,clearance,[3],22 mL/min/kg
same,IC50,[4],0.73 nM
same,CL free,[5],1613 mL/min/kg
same,MRT,[6],2.9 h
same,clearance,[7],9 mL/min/kg
same,CL free,[8],727 mL/min/kg
same,MRT,[9],8.1 h
